Experimental data as given in the supplement of paper PMC10627819.

Key:
Test in all cases: Bliss interaction score (quartile over a dose matrix) (fitness difference); higher = more antagonism (negative = synergy)
[1] = system: B. subtilis 168
How it was run: (§1)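 Quartiles of the Bliss score were taken over technical, biological and donor/recipient replicates. That score is observed fitness minus the product of the single-drug fitness values, which were inferred from combination data. Fitness itself is OD595 at entry into stationary phase divided by the plate's robust no-drug mean, with a cap at 1.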

[2] = system: S. pneumoniae D39V
How it was run: as §1

[3] = system: S. aureus Newman
How it was run: as §1

[4] = system: S. aureus DSM 20231
How it was run: as §1
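Also: first quartile when negative (synergy) and third quartile when positive (antagonism).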

Row | SMILES | Bliss interaction score ([1]; main component drawn) | Bliss interaction score ([2]; main component drawn) | Bliss interaction score ([3]; main component drawn) | Bliss interaction score ([4]; main component drawn) | Bliss interaction score [1] | Bliss interaction score [2] | Bliss interaction score [3] | Bliss interaction score [4]
1 | CC(=O)Oc1ccccc1C(=O)O [Acetylsalicylicacid] + CCC(C)C1C(=O)NC(=C)C(=O)NC(C(=O)NC(CSCC(C(=O)N1)NC(=O)/C(=C/C)/NC(=O)C(C(C)CC)N)C(=O)NC2C(SCC(NC(=O)CNC(=O)C3CCCN3C2=O)C(=O)NC(CCCCN)C(=O)NC4C(SCC(NC(=O)CNC(=O)C(NC(=O)C(NC(=O)C(NC(=O)CNC4=O)C)CC(C)C)CCSC)C(=O)NC(CC(=O)N)C(=O)NC(CCSC)C(=O)NC(CCCCN)C(=O)NC5C(SCC6C(=O)NC(C(=O)NC(CSC(C(C(=O)N6)NC(=O)C(NC5=O)C)C)C(=O)NC(CO)C(=O)NC(C(C)CC)C(=O)NC(CC7=CN=CN7)C(=O)NC(C(C)C)C(=O)NC(=C)C(=O)NC(CCCCN)C(=O)O)CC8=CN=CN8)C)C)C)CC(C)C [Nisin] | -0.0969 | -0.0424 | -0.0598 | -0.113 |  |  |  | 
2 | CC1(C)S[C@@H]2[C@H](NC(=O)Cc3ccccc3)C(=O)N2[C@H]1C(=O)O [PenicillinG] + Oc1cc(Cl)ccc1Oc1ccc(Cl)cc1Cl [Triclosan] |  |  |  |  | 0.0307 | 0.0767 | 0.0326 | 0.0254
3 | CO/N=C(\C(=O)N[C@@H]1C(=O)N2C(C(=O)O)=C(COC(C)=O)CS[C@H]12)c1csc(N)n1 [Cefotaxime] + CN[C@H](CC(C)C)C(=O)N[C@H]1C(=O)N[C@@H](CC(N)=O)C(=O)N[C@H]2C(=O)N[C@H]3C(=O)N[C@H](C(=O)N[C@H](C(=O)O)c4cc(O)cc(O)c4-c4cc3ccc4O)[C@H](O[C@H]3C[C@](C)(N)[C@@H](O)[C@H](C)O3)c3ccc(c(Cl)c3)Oc3cc2cc(c3O[C@@H]2O[C@H](CO)[C@@H](O)[C@H](O)[C@H]2O[C@H]2C[C@](C)(NCc3ccc(-c4ccc(Cl)cc4)cc3)[C@@H](O)[C@H](C)O2)Oc2ccc(cc2Cl)[C@H]1O [Oritavancin] |  |  |  |  | 0.0516 | -0.106 | 0.0965 | 0.0947
4 | CO/N=C(\C(=O)N[C@@H]1C(=O)N2C(C(=O)O)=C(COC(C)=O)CS[C@H]12)c1csc(N)n1 [Cefotaxime] + CC[C@H]1OC(=O)[C@H](C)C(=O)[C@H](C)[C@@H](O[C@@H]2O[C@H](C)C[C@H](N(C)C)[C@H]2O)[C@](C)(OC)C[C@@H](C)C(=O)[C@H](C)[C@H]2N(CCCCn3cnc(-c4cccnc4)c3)C(=O)O[C@]12C [Telithromycin] |  |  |  |  | 0.0749 | 0.0507 | -0.033 | 0.0754
5 | CO/N=C(\C(=O)N[C@@H]1C(=O)N2C(C(=O)O)=C(COC(N)=O)CS[C@H]12)c1ccco1 [Cefuroxime] + O=C(N[C@H](CO)[C@H](O)c1ccc([N+](=O)[O-])cc1)C(Cl)Cl [Chloramphenicol] |  |  |  |  | 0.162 | -0.0245 | -0.0407 | -0.341
6 | C[C@H]1c2cccc(O)c2C(=O)C2=C(O)[C@]3(O)C(=O)C(C(N)=O)=C(O)[C@@H](N(C)C)[C@@H]3[C@@H](O)[C@@H]21 [Doxycycline] + CCCCCCCCCC(=O)N[C@@H]1[C@H]([C@@H]([C@H](O[C@H]1OC2=C3C=C4C=C2OC5=C(C=C(C=C5)[C@H]([C@H]6C(=O)N[C@@H](C7=C(C(=CC(=C7)O)OC8[C@H]([C@H]([C@@H]([C@H](O8)CO)O)O)O)C9=C(C=CC(=C9)[C@H](C(=O)N6)NC(=O)[C@@H]4NC(=O)[C@@H]1C2=CC(=CC(=C2)OC2=C(C=CC(=C2)[C@H](C(=O)N[C@H](CC2=CC(=C(O3)C=C2)Cl)C(=O)N1)N)O)O)O)C(=O)O)O[C@H]1[C@@H]([C@H]([C@@H]([C@H](O1)CO)O)O)NC(=O)C)Cl)CO)O)O [Teicoplanin] | 0.0442 | -0.0489 | 0.0478 | 0.118 |  |  |  | 
7 | N#CC(C#N)=NNc1cccc(Cl)c1 [CCCP] + Cc1onc(-c2ccccc2)c1C(=O)N[C@@H]1C(=O)N2[C@@H]1SC(C)(C)[C@@H]2C(=O)O [Oxacillin] |  |  |  |  | 0.0476 | 0.12 | -0.0755 | 0.0876
8 | N#CC(C#N)=NNc1cccc(Cl)c1 [CCCP] + CC[C@H]1OC(=O)[C@H](C)[C@@H](O[C@H]2C[C@@](C)(OC)[C@@H](O)[C@H](C)O2)[C@H](C)[C@@H](O[C@@H]2O[C@H](C)C[C@H](N(C)C)[C@H]2O)[C@](C)(O)C[C@@H](C)C(=O)[C@H](C)[C@@H](O)[C@]1(C)O [Erythromycin] |  |  |  |  | -0.0587 | -0.0863 | 0.0472 | 0.023
